Data on 17 compounds can be found in patent US7495025B2, “Spiro-1,2,4-trioxanes” (Council of Scientific and Industrial Research, priority 2005, dated 2009).

Like-named read-outs stand apart in the source and are kept apart here.

The test relates to multi-drug resistant strain of Plasmodium yoelii Nigeriensis. The test can be described thus: Antimalarial activity against multi-drug resistant P. yoelii in Swiss mice (4-day treatment, observation till day 28). The settings on record: for inhibition in vivo at 96 mg/kg/day / responders at 96 mg/kg/day / inhibition in vivo at 24 mg/kg/day / inhibition in vivo at 48 mg/kg/day / responders at 24 mg/kg/day / responders at 48 mg/kg/day: Plasmodium yoelii; for inhibition in vivo at 96 mg/kg/day / inhibition in vivo at 24 mg/kg/day / inhibition in vivo at 48 mg/kg/day: 96 h, read-out: % Suppression on Day 4; for responders at 96 mg/kg/day / responders at 24 mg/kg/day / responders at 48 mg/kg/day: 672 h. In kind it is in vivo. The protocol: The antimalarial activity of the test compounds was evaluated in rodent using multi-drug resistant strain of Plasmodium yoelii Nigeriensis in Swiss mice.
Random bred Swiss mice of either sex (20±2 gm) were inoculated intraperitoneally with 1×10^5 P. yoelii (MDR) parasites on day zero. The treatments with test compounds were administered to group of 5 mice each at different dose levels ranging between 24-96 mg/kg/day. The treatment was administered in groundnut oil intramuscularly and orally for 4 consecutive days (day 0-3). Blood smears from experimental mice were observed on day 4 and 7, day 10 and thereafter at regular intervals till day 28 or death of the animal. The parasitaemia level on day 4 was compared with vehicle control group and the percent suppression of parasitaemia in treated groups were calculated.
The dose at which no parasitaemia develop during the observation period has been reported as the curative dose.

The mark [1] stands for this setting: Swiss mice, 96 mg/kg/day, oral, in groundnut oil, days 0-3.
The mark [2] stands for this setting: Swiss mice, 96 mg/kg/day, oral, in groundnut oil, days 0-3, read-out: Mice alive on day-28 (converted).
[3] abbreviates: Swiss mice, 96 mg/kg/day, i.m., in groundnut oil, days 0-3.
Setting [4] is: Swiss mice, 24 mg/kg/day, oral, in groundnut oil, days 0-3.
The mark [5] stands for this setting: Swiss mice, 48 mg/kg/day, oral, in groundnut oil, days 0-3.
Setting [6] is: Swiss mice, 24 mg/kg/day, oral, in groundnut oil, days 0-3, read-out: Mice alive on day-28 (converted).
[7] abbreviates: Swiss mice, 48 mg/kg/day, oral, in groundnut oil, days 0-3, read-out: Mice alive on day-28 (converted).
The mark [8] stands for this setting: im, Swiss mice, 48 mg/kg/day, i.m., in groundnut oil, days 0-3.
Where [9] appears, read: im, Swiss mice, 96 mg/kg/day, i.m., in groundnut oil, days 0-3.
Setting [10] is: im, Swiss mice, 48 mg/kg/day, i.m., in groundnut oil, days 0-3, read-out: Mice alive on day-28 (converted).
Where [11] appears, read: im, Swiss mice, 96 mg/kg/day, i.m., in groundnut oil, days 0-3, read-out: Mice alive on day-28 (converted).
The mark [12] stands for this setting: po, read-out: Mice alive on day-28.

In the case of `C=C(c1ccc(-c2ccccc2)cc1)C1COC2(CCC(=C(C)C(=O)OCC)CC2)OO1` (centres unmarked) [Compound 4bb, 2-[3-(1-Biphenyl-4-yl-vinyl)-1,2,5-trioxa-spiro [5.5]undec-9-ylidene]-propionic acid ethyl ester], the inhibition in vivo at 96 mg/kg/day under setting [1] stood at 100%. Also, the responders at 96 mg/kg/day under setting [2] is 60%.
On the same counts, the results for `C=C(c1ccc(C2CCCCC2)cc1)C1COC2(CCC(=C(C)C(=O)OCC)CC2)OO1` (centres unmarked) [Compound 4bf, 2-{3-[1-(4-Cyclohexyl-phenyl)-vinyl]-1,2,5-trioxa-spiro[5.5]undec-9-ylidene}-propionic acid ethyl ester] are 100% and 40%.
The matching figures for `C=C(c1ccc(-c2ccccc2)cc1)C1COC2(CCC(=CC(=O)OCC)CC2)OO1` (centres unmarked) [Compound 4ab, [3-(1-Biphenyl-4-yl-vinyl)-1,2,5-trioxa-spiro[5.5]undec-9-ylidene]-acetic acid ethyl ester]: 100% and 100%.
For the compound `C=C(c1cccc2ccccc12)C1COC2(CCC(=O)CC2)OO1` (centres unmarked) [Compound 3g, 3-(1-Naphthalen-1-yl-vinyl)-1,2,5-trioxa-spiro [5.5]undecan-9-one], the inhibition in vivo at 96 mg/kg/day under setting [1] amounted to 100%. Besides, the responders at 96 mg/kg/day under setting [2] is 20%.
Take `C=C(c1ccccc1)C1COC2(CCC(=O)CC2)OO1` (centres unmarked) [Compound 3a, 3-(1-Phenyl-vinyl)-1,2,5-trioxaspiro[5.5]undec-9-one]: under setting [3], the “% Suppression on Day 4” value is 99% and the “Mice alive on day-28” value is 0/5.
For the compound `C=C(c1ccc(C)cc1)C1COC2(CCC(=CC(=O)OCC)CC2)OO1` (centres unmarked) [Compound 4ae, [3-(1-p-Tolyl-vinyl)-1,2,5-trioxa-spiro[5.5]undec-9-ylidene]-acetic acid ethyl ester], the inhibition in vivo at 24 mg/kg/day under setting [4] is 100%. Further, the inhibition in vivo at 48 mg/kg/day came to 100% under setting [5] and 100% under setting [8]. The responders at 24 mg/kg/day under setting [6] is 60%. In addition, the responders at 48 mg/kg/day runs as follows: under setting [7], 100%; under setting [10], 40%. The inhibition in vivo at 96 mg/kg/day under setting [9] was found to be 100%. Moreover, the responders at 96 mg/kg/day under setting [11] is 100%.
On to `C=C(c1ccc(Cl)cc1)C1COC2(CCC(=O)CC2)OO1` (centres unmarked) [Compound 3c, 3-[1-(4-Chloro-phenyl)-vinyl]-1,2,5-trioxa-spiro[5.5]undecan-9-one], for which, under setting [1], the inhibition in vivo at 96 mg/kg/day was 100%. In addition, the responders at 96 mg/kg/day under setting [2] was 0%.
Regarding `C=C(c1cccc2ccccc12)C1COC2(CCC(=CC(=O)OCC)CC2)OO1` (centres unmarked) [Compound 4ag, [3-(1-Naphthalen-1-yl-vinyl)-1,2,5-trioxa-spiro[5.5]undec-9-ylidene]-acetic acid ethyl ester], under setting [9], the inhibition in vivo at 96 mg/kg/day is 100%. The responders at 96 mg/kg/day under setting [11] is 100%.
For the compound `C=C(c1ccc(C2CCCCC2)cc1)C1COC2(CCC(=O)CC2)OO1` (centres unmarked) [Compound 3f, 3-[1-(4-Cyclohexyl-phenyl)-vinyl]-1,2,5-trioxa-spiro[5.5]undecan-9-one], the inhibition in vivo at 96 mg/kg/day under setting [1] amounted to 100% and the inhibition in vivo at 96 mg/kg/day under setting [9] came out at 100%. Further, the responders at 96 mg/kg/day was 60% under setting [2] and 40% under setting [11].
`C=C(c1ccc(Cl)cc1)C1COC2(CCC(=CC(=O)OCC)CC2)OO1` (centres unmarked) [Compound 4ac, {3-[1-(4-Chloro-phenyl)-vinyl]-1,2,5-trioxa-spiro[5.5]undec-9-ylidene}-acetic acid ethyl ester]: the inhibition in vivo at 24 mg/kg/day under setting [4] was 100%. Also, the inhibition in vivo at 48 mg/kg/day by setting is: under setting [5], 100%; under setting [8], 100%. Moreover, the responders at 24 mg/kg/day under setting [6] was 60%. Moreover, the responders at 48 mg/kg/day reads like this: under setting [7], 100%; under setting [10], 60%. Besides, the inhibition in vivo at 96 mg/kg/day under setting [9] is 100%. The responders at 96 mg/kg/day under setting [11] was 100%.
Regarding `C=C(c1ccc(C2CCCCC2)cc1)C1COC2(CCC(=CC(=O)OCC)CC2)OO1` (centres unmarked) [Compound 4af, {3-[1-(4-Cyclohexyl-phenyl)-vinyl]-1,2,5-trioxa-spiro[5.5]undec-9-ylidene}-acetic acid ethyl ester], the inhibition in vivo at 48 mg/kg/day under setting [5] turned out to be 100%. Also, the inhibition in vivo at 96 mg/kg/day under setting [1] came out at 100%. Further, under setting [7], the responders at 48 mg/kg/day was 60%. Also, the responders at 96 mg/kg/day under setting [2] was 80%.
With `CCN(CC)CCCC(C)Nc1ccnc2cc(Cl)ccc12` (centres unmarked) [Chloroquine, reference compound], under “po”, the inhibition in vivo at 24 mg/kg/day was 100% and the inhibition in vivo at 48 mg/kg/day was determined as 100%. Also, under setting [12], the responders at 24 mg/kg/day stood at 0% and the responders at 48 mg/kg/day was 40%.
Take `C=C(c1ccccc1)C1COC2(CCC(=CC(=O)OCC)CC2)OO1` (centres unmarked) [Compound 4aa, [3-(1-Phenyl-vinyl)-1,2,5-trioxa-spiro[5.5]undec-9-ylidene]-acetic acid ethyl ester]: under setting [5], the inhibition in vivo at 48 mg/kg/day stood at 100%. Moreover, the responders at 48 mg/kg/day under setting [7] is 100%. Besides, the inhibition in vivo at 96 mg/kg/day under setting [9] is 99%. Further, the responders at 96 mg/kg/day under setting [11] is 40%.
With `CCO[C@H]1O[C@@H]2O[C@@]3(C)CC[C@H]4[C@H](C)CC[C@@H]([C@H]1C)[C@@]24OO3` [β-Arteether, reference compound], the “% Suppression on Day 4” value under setting [4] was 100% and the “% Suppression on Day 4” value under setting [5] is recorded as 100%. For the same compound, the “Mice alive on day-28” value runs as follows: under setting [4], 1/5; under setting [5], 5/5.
In the case of `C=C(c1ccc(OC)cc1)C1COC2(CCC(=CC(=O)OCC)CC2)OO1` (centres unmarked) [Compound 4ad, {3-[1-(4-Methoxy-phenyl)-vinyl]-1,2,5-trioxa-spiro[5.5]undec-9-ylidene}-acetic acid ethyl ester], the inhibition in vivo at 96 mg/kg/day is, setting by setting: under setting [1], 100%; under setting [9], 100%. Further, the responders at 96 mg/kg/day is 100% under setting [2] and 40% under setting [11].
`C=C(c1ccc(-c2ccccc2)cc1)C1COC2(CCC(=O)CC2)OO1` (centres unmarked) [Compound 3b, 3-(1-Biphenyl-4yl-vinyl)-1,2,5-trioxaspiro[5.5]undec-9-one]: under setting [3], the “% Suppression on Day 4” value is on record as 100% and the “Mice alive on day-28” value was 1/5.
Consider `C=C(c1ccc2ccccc2c1)C1COC2(CCC(=CC(=O)OCC)CC2)OO1` (centres unmarked) [Compound 4ah, [3-(1-Naphthalen-2-yl-vinyl)-1,2,5-trioxa-spiro[5.5]undec-9-ylidene]-acetic acid ethyl ester], for which, under setting [4], the inhibition in vivo at 24 mg/kg/day is 100%. In addition, under setting [5], the inhibition in vivo at 48 mg/kg/day came to 100%. Moreover, the responders at 24 mg/kg/day under setting [6] is 20%. Moreover, under setting [7], the responders at 48 mg/kg/day was 100%. Besides, the inhibition in vivo at 96 mg/kg/day under setting [9] was found to be 88%. Further, the responders at 96 mg/kg/day under setting [11] was 40%.
